Assay results: patent publication US20250074890A1, “CYANOPYRIDINE AND CYANOPYRIMIDINE BCL6 DEGRADERS” (DANA-FARBER CANCER INSTITUTE, INC., priority 2021, published 2025)

target: T1, BCL6 (Homo sapiens, UniProt P41182); experiment: HiBiT cellular degradation assay in Su-DHL-4 cells; format: cell-based; details: concentration to reach 50% degradation of endogenous SmBiT-tagged BCL6, 24 hours of compound treatment
T1 construct: Endogenous BCL6 was tagged with the 11-amino acid SmBiT through CRISPR/Cas9 gene editing; endogenous in cells; host or cells: Su-DHL-4 (CRISPR/Cas9 knock-in, single cell clone)
Description: DC50 (concentration to reach 50% degradation) values were determined from a cellular degradation assay (HiBiT, Promega™) in Su-DHL-4 cells (Table 1). Endogenous BCL6 was tagged with the 11-amino acid SmBiT through CRISPR/Cas9 gene editing and single cell clone selection. After 24 hours of compound treatment, cells were lysed and incubated with LgBiT protein to reconstitute intact nanoluciferase. Substrate was then added and relative luciferase units were measured. Degradation levels for each treatment were taken as a percentage compared to the control, 100% DMSO (Prism).

DC50 [nM]	Structure (SMILES)
2	CNC(=O)COc1cc2cc(Nc3nc(N4C[C@@H](C)[C@@H](F)[C@@H](C)C4)c(C#N)cc3Cl)ccc2n(CCN(C)C)c1=O [Compound 72, 2-((6-((3-Chloro-5-cyano-6-((3S,4S,5R)-4-fluoro-3,5-dimethylpiperidin-1-yl)pyridin-2-yl)amino)-1-(2-(dimethylamino)ethyl)-2-oxo-1,2-dihydroquinolin-3-yl)oxy)-N-methylacetamide]
8	CNC(=O)COc1cc2cc(Nc3nc(N4C[C@@H](CCO)C(F)(F)[C@@H](C)C4)c(C#N)cc3Cl)ccc2n(C)c1=O [Compound 62, 2-((6-((3-chloro-5-cyano-6-((3R,5S)-4,4-difluoro-3-(2-hydroxyethyl)-5-methylpiperidin-1-yl)pyridin-2-yl)amino)-1-methyl-2-oxo-1,2-dihydroquinolin-3-yl)oxy)-N-methylacetamide]
41	CNC(=O)COc1cc2cc(Nc3nc(N4C[C@@H](C)C[C@@H](N)C4)c(C#N)cc3Cl)ccc2n(C)c1=O [Compound 39, 2-((6-((6-((3R,5S)-3-Amino-5-methylpiperidin-1-yl)-3-chloro-5-cyanopyridin-2-yl)amino)-1-methyl-2-oxo-1,2-dihydroquinolin-3-yl)oxy)-N-methylacetamide]
101	C[C@@H]1CN(c2nc(Nc3ccc4c(c3)n(C[C@@H]3CNC(=O)O3)c(=O)n4C)c(F)cc2C#N)C[C@H](C)[C@@H]1F [Compound 87, 5-Fluoro-2-[(3S,4S,5R)-4-fluoro-3,5-dimethyl-1-piperidyl]-6-[[1-methyl-2-oxo-3-[[(5S)-2-oxooxazolidin-5-yl]methyl]benzimidazol-5-yl]amino]pyridine-3-carbonitrile]
4	CNC(=O)COc1cc2cc(Nc3nc(N4C[C@@H](C)C(F)[C@@H](C)C4)c(C#N)cc3Cl)ccc2n(CCN(C)C)c1=O (stereo partly drawn) [Compound 77, 2-((6-((3-Chloro-5-cyano-6-((3R,4R,5S)-4-fluoro-3,5-dimethylpiperidin-1-yl)pyridin-2-yl)amino)-1-(2-(dimethylamino)ethyl)-2-oxo-1,2-dihydroquinolin-3-yl)oxy)-N-methylacetamide]
33	C[C@@H]1CN(c2nc(Nc3ccc4c(c3)n(CCC(C)(C)O)c(=O)n4C)c(F)cc2C#N)C[C@H](O)C1(F)F [Compound 82, 2-((3S,5R)-4,4-difluoro-3-hydroxy-5-methylpiperidin-1-yl)-5-fluoro-6-((3-(3-hydroxy-3-methylbutyl)-1-methyl-2-oxo-2,3-dihydro-1H-benzo[d]imidazol-5-yl)amino)nicotinonitrile]
62	C[C@@H]1CN(c2nc(Nc3ccc4c(c3)n(CCC(C)(C)O)c(=O)n4CC3COC3)c(Cl)cc2C#N)C[C@H](N)C1(F)F [Compound 37, 2-((3S,5R)-3-Amino-4,4-difluoro-5-methylpiperidin-1-yl)-5-chloro-6-((3-(3-hydroxy-3-methylbutyl)-1-(oxetan-3-ylmethyl)-2-oxo-2,3-dihydro-1H-benzo[d]imidazol-5-yl)amino)nicotinonitrile]
70	CNC(=O)COc1cc2cc(Nc3nc(N4C[C@@H](N)C(F)(F)[C@@H](C)C4)c(C#N)cc3Cl)ccc2n(C)c1=O [Compound 44, 2-((6-((6-((3R,5S)-3-amino-4,4-difluoro-5-methylpiperidin-1-yl)-3-chloro-5-cyanopyridin-2-yl)amino)-1-methyl-2-oxo-1,2-dihydroquinolin-3-yl)oxy)-N-methylacetamide]
28	C[C@@H]1CN(c2nc(Nc3ccc4c(c3)n(CCC(C)(C)O)c(=O)n4C)c(Cl)cc2C#N)C[C@H](O)[C@@H]1F [Compound 50, 5-chloro-2-((3S,4R,5R)-4-fluoro-3-hydroxy-5-methylpiperidin-1-yl)-6-((3-(3-hydroxy-3-methylbutyl)-1-methyl-2-oxo-2,3-dihydro-1H-benzo[d]imidazol-5-yl)amino)nicotinonitrile]
39	CNC(=O)COc1cc2cc(Nc3nc(N4C[C@H](CCO)C(F)(F)[C@H](C)C4)c(C#N)cc3Cl)ccc2n(C)c1=O [Compound 63, 2-((6-((3-chloro-5-cyano-6-((3S,5R)-4,4-difluoro-3-(2-hydroxyethyl)-5-methylpiperidin-1-yl)pyridin-2-yl)amino)-1-methyl-2-oxo-1,2-dihydroquinolin-3-yl)oxy)-N-methylacetamide]
83	C[C@@H]1CN(c2nc(Nc3ccc4c(c3)n(C[C@H]3CNC(=O)O3)c(=O)n4C)c(F)cc2C#N)C[C@H](C)[C@@H]1F [Compound 86, 5-Fluoro-2-((3S,4S,5R)-4-fluoro-3,5-dimethylpiperidin-1-yl)-6-((1-methyl-2-oxo-3-(((R)-2-oxooxazolidin-5-yl)methyl)-2,3-dihydro-1H-benzo[d]imidazol-5-yl)amino)nicotinonitrile]
> 400	CNC(=O)COc1cc2cc(Nc3nc(N4C[C@@H](C)C[C@@H](C(=O)O)C4)c(C#N)cc3Cl)ccc2n(C)c1=O [Compound 78, (3R,5S)-1-(5-chloro-3-cyano-6-((1-methyl-3-(2-(methylamino)-2-oxoethoxy)-2-oxo-1,2-dihydroquinolin-6-yl)amino)pyridin-2-yl)-5-methylpiperidine-3-carboxylic acid]
10	CNC(=O)COc1cc2cc(Nc3nc(N4C[C@@H](C)C(F)(F)[C@@H](N)C4)c(C#N)cc3Cl)ccc2n(CC2COC2)c1=O [Compound 41, 2-((6-((6-((3S,5R)-3-Amino-4,4-difluoro-5-methylpiperidin-1-yl)-3-chloro-5-cyanopyridin-2-yl)amino)-1-(oxetan-3-ylmethyl)-2-oxo-1,2-dihydroquinolin-3-yl)oxy)-N-methylacetamide]
15	CNC(=O)COc1cc2cc(Nc3nc(N4C[C@@H](C)[C@@H](F)[C@@H](C)C4)c(C#N)cc3Cl)ccc2n(CCCN)c1=O [Compound 69, 2-((1-(3-Aminopropyl)-6-((3-chloro-5-cyano-6-((3S,4S,5R)-4-fluoro-3,5-dimethylpiperidin-1-yl)pyridin-2-yl)amino)-2-oxo-1,2-dihydroquinolin-3-yl)oxy)-N-methylacetamide]
> 400	CNC(=O)COc1cc2cc(Nc3nc(N4C[C@H](C)C[C@H](N)C4)c(C#N)cc3Cl)ccc2n(C)c1=O [Compound 40, 2-((6-((6-((3S,5R)-3-Amino-5-methylpiperidin-1-yl)-3-chloro-5-cyanopyridin-2-yl)amino)-1-methyl-2-oxo-1,2-dihydroquinolin-3-yl)oxy)-N-methylacetamide]
30	C[C@H]1C[C@@H](N)CN(c2nc(Nc3ccc4c(c3)c3c(c(=O)n4C)OCC(F)(F)[C@H](C4CC4)N3)c(Cl)cc2C#N)C1 (single isomer, unassigned) [Compound 24]
102	C[C@@H]1CN(c2nc(Nc3ccc4c(c3)n(C[C@H]3COC(=O)N3)c(=O)n4C)c(F)cc2C#N)C[C@H](C)[C@@H]1F [Compound 89, 5-Fluoro-2-((3S,4S,5R)-4-fluoro-3,5-dimethylpiperidin-1-yl)-6-((1-methyl-2-oxo-3-(((S)-2-oxooxazolidin-4-yl)methyl)-2,3-dihydro-1H-benzo[d]imidazol-5-yl)amino)nicotinonitrile]
10	CNC(=O)COc1cc2cc(Nc3nc(N4C[C@@H](C)C(F)(F)[C@@H](N)C4)c(C#N)cc3Cl)ccc2n(C)c1=O [Compound 43, 2-((6-((6-((3S,5R)-3-Amino-4,4-difluoro-5-methylpiperidin-1-yl)-3-chloro-5-cyanopyridin-2-yl)amino)-1-methyl-2-oxo-1,2-dihydroquinolin-3-yl)oxy)-N-methylacetamide]
